From EP0642790A2, “Alkali citrates and their use as medicaments, especially against arterosclerosis” (MADAUS AG, priority 1993, dated 1995)
Read-outs that look alike come from different tables or passages of the source.

Columns and labels:
[1] = tested on: Ablagerungen in Aortasegmenten; assay: Calcification (deposit formation) of rat aorta segments in diffusion chambers implanted into the abdominal cavity of rats; histology and morphometry; assay type: in vivo, Ratten (Sprague-Dawley-Ratten); details: for Dicke (Ablagerungsschichtdicke): 2,1 mmol Citrat per day orally in two doses, maximal deposit layer thickness by ocular micrometer, Kontrolle 55; for Dicke (Ablagerungsschichtdicke) / Minimierung der Flächenausdehnung der Ablagerungen im Vergleich zur Kontrolle / Fläche (Flächenausdehnung der Ablagerungen): 22 days; for Minimierung der Flächenausdehnung der Ablagerungen im Vergleich zur Kontrolle / Fläche (Flächenausdehnung der Ablagerungen): 2,1 mmol Citrat per day orally; for Fläche (Flächenausdehnung der Ablagerungen): Kontrolle 240; for histologisch-lichtmikroskopische Untersuchung der Querschnitte der Aortaabschnitte: Kontrolle: pronounced deposit formation; for relative Volumina %: relative to Kontrolle = 100; for relative Volumina: thickness multiplied by area, Kontrolle 13200; for Abnahme der Ablagerungsschichtdicke im Vergleich zu der Kontrolle (Faktor): factor versus Kontrolle (55 µm)
Description: (§1) Pentobarbital betäubten Ratten (Sprague-Dawley-Ratten) wurde die Aorta aseptisch entnommen, in acht 5 mm große Segmente geschnitten und in sterile Diffusionskammern (Fa. Millipore GmbH, Eschborn), mit einem Durchmesser von 14 mm und einer Porengröße von 0,22 µm fixiert. Jeweils 2 Kammern wurden in die Bauchhöhle einer Ratte implantiert. Die Versuchsgruppen bestanden aus mindestens 7 Ratten.
Folgende wäßrige Citrat-Lösungen wurden oral appliziert:
(§2) Jedem Versuchstier wurden pro Tag 2,1 mmol Citrat oral in zwei gleichen Dosen appliziert, nach 22 Tagen die beiden Diffusionskammern entnommen und die Aorta-Abschnitte licht-, elektronenmikroskopisch, röntgenspektrographisch sowie elementar-analytisch untersucht. Zur histologischen Untersuchung wurden die Gewebeabschnitte in 8% Formalin fixiert, die Aortaabschnitte für die lichtmikroskopischen Untersuchung nach Kossa mit Hämatoxylin und Eosin gefärbt sowie diejenigen zur elektronenmikroskopischen Untersuchung in 2,5% Glutaraldehyd und anschließend in 1% Osmiumtetroxyd fixiert. Die Bestimmung der maximalen Ablagerungsschichtdicke erfolgte mittels Okularmikrometer und die Flächenausdehnung der Ablagerungsschicht der jeweiligen Aortasegmente wurden nach bekannten Methoden ermittelt.

[2] = tested on: Aortasegmenten; assay: Mineral content and calcium/phosphorus quotient in the implanted aorta segments; assay type: in vivo, Ratten (Sprague-Dawley-Ratten); details: for Calcium, Konzentration in Aortasegmenten: mean (range of measured values), Kontrolle 4,77; for Magnesium, Konzentration in Aortasegmenten / Phosphor, Konzentration in Aortasegmenten: mean (range); for Magnesium, Konzentration in Aortasegmenten: Kontrolle 0,20; for Phosphor, Konzentration in Aortasegmenten: Kontrolle 4,47
Description: as §1, §2

[3] = parameters: species or system Ratten (Sprague-Dawley-Ratten); details: rat, in vivo
Description: as §1, §2
Das bedeutet, daß die Verstoffwechslung erhöhter Gaben von KNC, KC oder NC im Organismus nicht zu einer Veränderung der Serumzusammensetzung führt und daß daher die Nierenfiltration aufgrund der im Normbereich befindlichen Fraktionen der ultrafiltrierbaren und ionablen Fraktion des Serums nicht beeinträchtigt wird.
Um die Wirkung der Applikationen von KNC, NC und KC auf den Hormonhaushalt zu überprüfen, wurde die Konzentration von PTH im Blut analysiert.

[4] = parameters: species or system Ratten (Sprague-Dawley-Ratten); details: rat, in vivo; remark: listed apart in the source
Description: as §1, §2
Der Umstand, daß Alkalicitrate ohne Nebenwirkungen im Gegensatz zu bekannten o.g. Medikamente auf die Nierentätigkeit ist, ergibt sich auch aus der Bestimmung der Urinzusammensetzung [Tabelle (2B)). Die Konzentrationen von beispielsweise cAMP unterschieden sich nur unwesentlich von denen der Kontrolle.

Substance | Dicke (Ablagerungsschichtdicke) [1] | Minimierung der Flächenausdehnung der Ablagerungen im Vergleich zur Kontrolle [1] | Fläche (Flächenausdehnung der Ablagerungen) [1] | histologisch-lichtmikroskopische Untersuchung der Querschnitte der Aortaabschnitte [1] | relative Volumina % [1] | relative Volumina [1] | Calcium, Konzentration in Aortasegmenten [2] | Phosphor, Konzentration in Aortasegmenten [2] | Calcium [3] | Calcium/ Protein [3] | Citrat [3] | Ges.CO2 [3] | Ges.Protein [3] | Kreatinin [3] | PTH [3] | arteriell-venöse pH-Wert, Konzentrationen an Gesamt-CO₂, Citrat, Magnesium und Phosphor im Blut [3] | pH [3] | Citrat [4] | Magnesium [4] | cAMP [4] | further results
K₃C₆H₅O₇ x 1 H₂O [KC] | 33 µm | 41% | 98 | gleichmäßig verteilte ohne besondere Erhebungen gestaltete Ablagerungsschicht | 25% | 3234 | 5,09 (3,15-10,81) mmol/g | 7,66 (2,97-17,74) mmol/g | 2,27 (2,20-2,43)^1 mmol/l | 44 (42-46) µmol/g | 163 (96-248) µmol/l | 45,0 (39,2-50,8) mmol/g | 51,0 (48,3-53,3)^2 g/l | 31,8 (25,6-39,8) µmol/l | 200-468 | nicht verändert | 7,39 (7,31-7,45) | 22,0 (11,3-25,0)^2 µmol/g | 3,4 (1,8-9,1)^3 µmol/mg | 12,9 (9,9-16,0) nmol/mg | Magnesium, Konzentration in Aortasegmenten [2]: 0,28 (0,20-0,43)^2 mmol/g
K₆Na₆H₃(C₆H₅O₇)₅ x 2 H₂O [KNC] | 23 µm | 54% | 131 | gleichmäßig gestaltete (ohne besondere Erhebungen), stark verringerte Plaqueschicht | 23% | 3013 | 4,93 (3,40-7,16) mmol/g | 6,80 (2,09-10,51)^1 mmol/g | 2,27 (2,22-2,33)^1 mmol/l | 45 (40-47) µmol/g | 164 (55-244) µmol/l | 40,9 (36,9-45,1) mmol/g | 50,7 (47,5-57,0)^2 g/l | 30,9 (15,9-35,4)^2 µmol/l | 200-553 | nicht verändert | 7,39 (7,34-7,43) | 20,0 (13,2-30,3)^1 µmol/g | 3,7 (1,4-8,0)^3 µmol/mg | 11,6 (9,0-15,9) nmol/mg | Abnahme der Ablagerungsschichtdicke im Vergleich zu der Kontrolle (Faktor) [1]: 2,4; Ablagerungsdicke im Gegensatz zur Kontrolle ([1]; thickness as percent of Kontrolle): < 55%; Magnesium in Aortasegmenten, Vergleich der Gruppen ([2]; in words): höchsten Magnesiumanstieg; PTH-Level im Blut, Unterschied zur Kontrolle [3]: keine Unterschiede
Na₃C₆H₅O₇ x 2 H₂O [NC] |  |  | 159 | gleichmäßig verteilte ohne besondere Erhebungen gestaltete Ablagerungsschicht | 31% | 4134 | 4,20 (2,61-10,90) mmol/g | 6,35 (3,34-14,60) mmol/g | 2,20 (2,04-2,30)^3 mmol/l | 46 (42-50) µmol/g | 171 (140-212) µmol/l | 40,9 (29,6-51,8) mmol/g | 48,3 (44,8-55,3)^2 g/l | 31,8 (30,1-33,6)^1 µmol/l | 200-415 | nicht verändert | 7,43 (7,35-7,49) | 19,7 (15,8-30,4)^2 µmol/g | 4,0 (2,6-8,0)^3 µmol/mg | 13,5 (12,1-14,2) nmol/mg | Abnahme der Ablagerungsschichtdicke im Vergleich zu der Kontrolle (Faktor) [1]: > 2; Magnesium, Konzentration in Aortasegmenten [2]: 0,28 (0,20-0,33)^1 mmol/g
